The record followed here is article PMC11801377, “A uniquely efficacious type of CFTR corrector with complementary mode of action” (Science Advances, 2024).

One assay deals with F508del-CFTR (Homo sapiens, UniProt P13569, DEL508-508). As to the kind of experiment: SILAC heavy pulse light-chase assay: ER CFTR folding efficiency in CFBE41o- cells. The format is cell-based. Particulars: 2.5-hour chase; 2 μM IDOR-3, 2 μM IDOR-4, 10 μM TEZ, 10 μM ELX, TEZ + ELX 10 μM each. The procedure:
Stable isotope labeling using amino acids in cell culture (SILAC technology, Thermo Fisher Scientific) was used. For pulse-chase assays to determine CFTR folding efficiency at the ER, CFBE-F508del-CFTR or CFBE-WT-CFTR were seeded at 100,000 cells per well into a FNC-coated 24-well plate in CFBE growth medium and, the next day, incubated for 24 hours with “SILAC light medium” [arginine- and lysine-free RPMI 1640 #A33823, 84 mg/liter light L-arginine, # 89989, 146 mg/liter light L-lysine, #88429 and 20 mg/liter L-proline, # 89989 (to prevent a potential arginine-proline conversion)] supplemented with 10% dialyzed FBS. Cells were then washed once in PBS (37°C) and incubated for 1 hour with “starvation medium” (arginine-, lysine-free RPMI 1640, and 1% HSA) containing the indicated fixed concentrations of correctors. A 30-min metabolic pulse labeling was then performed by replacing the medium with “SILAC heavy medium” [arginine- and lysine-free RPMI 1640, L-proline (20 mg/liter), heavy L-arginine (84 mg/liter; ^13C6^15N4, #89990), heavy L-lysine (146 mg/liter; ^13C6^15N2, #88209), and 1% HSA] containing correctors. Cells were then washed with PBS and chased in SILAC light medium supplemented with 1% HSA and correctors. This medium was kept for 1, 2.5, 4, and 6 h of chase time followed by cell lysis in RIPA buffer as described above. […]

For another assay, the system named is CFTR mRNA. As to the kind of experiment: CFTR mRNA quantification in CFBE cells. The format is cell-based, human. Particulars: 24 hours, 2000 nM. The procedure: CFBE-F508del-CFTR cells were seeded at 70,000 cells per well in a FNC-coated 48-well plate and incubated for 24 hours with 2000 nM of indicated correctors or DMSO vehicle diluted in growth medium deprived of FBS but supplemented with 1% HSA. CFBE-WT-CFTR cells were treated with DMSO vehicle accordingly. Then, cells were washed twice with PBS^+ and lysed in RLT buffer (QIAGEN) for 10 min on ice. Lysates were fully homogenized with QIAshredder (#79656, QIAGEN), and total RNA was extracted with an RNeasy Mini kit (#74106, QIAGEN) following the manufacturer’s instruction. At the end, a deoxyribonuclease treatment was performed with a DNA-free kit (Invitrogen, AM1906) following the manufacturer’s instruction. A reverse transcription (150 ng of total RNA per sample) with random hexamers was performed with the high-capacity cDNA Reverse Transcription Kit (#4368814, Thermo Fisher Scientific) for 2 hours at 37°C. Three microliters of cDNA was mixed with 10 μl of TaqMan Fast Universal PCR (polymerase chain reaction) Master Mix (2×) No AmpErase UNG (4367848, Life Technologies) containing the probe of interest (1:20), and a quantitative PCR was run [20″ at 95°C; 3″ at 95°C to 30″ at 60°C (40 cycles)] on a 7500 Applied Biosystems device. […] Reference gene-normalized CFTR mRNA expression was calculated using ΔΔCt method with CFTR expression in vehicle-treated CFBE-F508del cells set to 1.

In another assay the target is T1, WT-CFTR (Homo sapiens, UniProt P13569).
T1 construct: host or cells: CFBE41o-
T1 sequence (P13569 whole entry): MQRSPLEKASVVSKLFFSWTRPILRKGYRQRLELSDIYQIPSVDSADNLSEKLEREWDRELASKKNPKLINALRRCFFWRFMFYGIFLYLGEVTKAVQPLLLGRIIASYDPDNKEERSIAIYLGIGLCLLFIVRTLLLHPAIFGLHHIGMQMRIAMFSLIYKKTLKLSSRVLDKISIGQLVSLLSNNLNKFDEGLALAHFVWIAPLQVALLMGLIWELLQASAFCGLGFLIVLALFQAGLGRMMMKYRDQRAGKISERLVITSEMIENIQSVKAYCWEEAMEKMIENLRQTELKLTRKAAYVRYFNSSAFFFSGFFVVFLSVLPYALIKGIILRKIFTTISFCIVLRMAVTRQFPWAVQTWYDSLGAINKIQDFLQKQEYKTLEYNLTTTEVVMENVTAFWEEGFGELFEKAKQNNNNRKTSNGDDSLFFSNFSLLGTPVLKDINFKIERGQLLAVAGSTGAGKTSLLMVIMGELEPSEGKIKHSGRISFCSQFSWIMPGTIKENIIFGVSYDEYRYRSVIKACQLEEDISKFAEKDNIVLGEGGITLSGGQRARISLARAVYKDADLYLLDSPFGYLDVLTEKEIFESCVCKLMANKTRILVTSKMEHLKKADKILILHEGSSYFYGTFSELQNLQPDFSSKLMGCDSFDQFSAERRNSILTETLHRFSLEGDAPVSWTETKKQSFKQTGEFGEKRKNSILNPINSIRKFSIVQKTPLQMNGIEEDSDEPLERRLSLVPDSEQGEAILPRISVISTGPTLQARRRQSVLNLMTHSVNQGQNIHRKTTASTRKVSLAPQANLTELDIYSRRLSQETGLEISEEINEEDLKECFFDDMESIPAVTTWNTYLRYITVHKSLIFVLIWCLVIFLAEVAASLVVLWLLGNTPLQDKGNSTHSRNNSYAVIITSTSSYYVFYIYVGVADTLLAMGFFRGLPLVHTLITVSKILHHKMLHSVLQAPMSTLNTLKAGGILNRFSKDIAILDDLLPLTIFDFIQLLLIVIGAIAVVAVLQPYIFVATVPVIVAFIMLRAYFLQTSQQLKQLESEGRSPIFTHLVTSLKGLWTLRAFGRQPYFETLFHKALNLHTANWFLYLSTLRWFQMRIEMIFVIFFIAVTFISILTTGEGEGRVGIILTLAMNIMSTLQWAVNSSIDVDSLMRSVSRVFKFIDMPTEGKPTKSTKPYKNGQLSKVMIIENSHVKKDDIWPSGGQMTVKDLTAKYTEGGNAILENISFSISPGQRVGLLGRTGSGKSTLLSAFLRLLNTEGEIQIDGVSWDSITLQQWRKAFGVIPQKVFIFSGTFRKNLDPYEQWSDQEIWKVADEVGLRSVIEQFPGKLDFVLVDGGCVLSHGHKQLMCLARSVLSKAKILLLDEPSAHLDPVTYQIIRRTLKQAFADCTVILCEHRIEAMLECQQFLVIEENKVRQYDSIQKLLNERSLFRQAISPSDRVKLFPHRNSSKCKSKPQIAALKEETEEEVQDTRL
Kind of assay: YFP quenching assay in CFBE-WT-CFTR-YFP cells. The format is cell-based.

F508del-CFTR, sequence (P13569 with tags, fused parts or gaps DEL508-508): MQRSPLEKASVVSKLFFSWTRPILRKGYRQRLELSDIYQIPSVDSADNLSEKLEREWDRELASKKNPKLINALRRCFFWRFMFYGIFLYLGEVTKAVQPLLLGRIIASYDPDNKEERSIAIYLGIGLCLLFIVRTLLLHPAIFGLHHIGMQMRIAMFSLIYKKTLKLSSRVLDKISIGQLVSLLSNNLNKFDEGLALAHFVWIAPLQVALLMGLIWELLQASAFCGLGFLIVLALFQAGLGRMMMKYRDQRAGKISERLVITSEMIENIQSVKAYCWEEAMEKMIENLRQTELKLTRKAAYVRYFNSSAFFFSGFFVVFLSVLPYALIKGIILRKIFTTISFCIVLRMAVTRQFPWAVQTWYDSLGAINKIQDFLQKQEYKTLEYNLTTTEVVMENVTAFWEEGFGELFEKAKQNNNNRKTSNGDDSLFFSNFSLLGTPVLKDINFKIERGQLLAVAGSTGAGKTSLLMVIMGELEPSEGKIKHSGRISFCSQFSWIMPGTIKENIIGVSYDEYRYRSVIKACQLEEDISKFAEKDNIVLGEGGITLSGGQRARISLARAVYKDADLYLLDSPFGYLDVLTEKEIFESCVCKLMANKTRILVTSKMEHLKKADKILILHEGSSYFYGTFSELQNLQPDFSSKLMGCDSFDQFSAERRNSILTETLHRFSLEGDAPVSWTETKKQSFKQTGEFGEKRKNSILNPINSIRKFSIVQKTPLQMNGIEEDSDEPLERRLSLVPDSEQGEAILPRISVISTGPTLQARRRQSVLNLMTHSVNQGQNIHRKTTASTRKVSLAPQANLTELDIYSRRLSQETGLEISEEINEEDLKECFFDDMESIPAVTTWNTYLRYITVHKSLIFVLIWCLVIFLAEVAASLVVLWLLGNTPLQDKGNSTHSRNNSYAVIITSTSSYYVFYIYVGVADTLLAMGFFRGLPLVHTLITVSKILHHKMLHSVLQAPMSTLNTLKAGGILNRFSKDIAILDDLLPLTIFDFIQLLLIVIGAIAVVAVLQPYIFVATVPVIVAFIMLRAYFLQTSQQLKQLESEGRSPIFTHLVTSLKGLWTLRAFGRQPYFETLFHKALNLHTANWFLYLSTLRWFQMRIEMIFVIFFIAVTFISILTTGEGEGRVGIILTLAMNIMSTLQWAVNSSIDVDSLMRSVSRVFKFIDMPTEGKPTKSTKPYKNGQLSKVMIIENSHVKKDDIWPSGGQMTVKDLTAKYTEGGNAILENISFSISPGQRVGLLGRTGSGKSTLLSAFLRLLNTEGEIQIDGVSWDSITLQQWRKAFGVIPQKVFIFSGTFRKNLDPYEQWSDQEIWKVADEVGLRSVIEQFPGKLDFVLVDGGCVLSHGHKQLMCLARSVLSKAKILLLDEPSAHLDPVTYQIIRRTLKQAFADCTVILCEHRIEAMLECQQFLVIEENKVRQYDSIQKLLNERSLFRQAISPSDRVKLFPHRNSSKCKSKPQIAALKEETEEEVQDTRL

On to `Cc1nn(C)cc1S(=O)(=O)NC(=O)c1ccc(-n2ccc(OCC(C)(C)C(F)(F)F)n2)nc1N1C[C@@H](C)CC1(C)C` [ELX, elexacaftor], for which the “B-to-C conversion rate (folding efficiency)” value at F508del-CFTR is 6.7%. Besides, in the assay with CFTR mRNA, the “effect on CFTR mRNA levels” value is given as “neither macrocycles nor ELX/TEZ affected these levels”.

Take `CC(C)(CO)c1cc2cc(NC(=O)C3(c4ccc5c(c4)OC(F)(F)O5)CC3)c(F)cc2n1C[C@@H](O)CO` [TEZ, tezacaftor]: the “B-to-C conversion rate (folding efficiency)” value at F508del-CFTR is listed as 2.4%. For the same molecule, the “effect on CFTR mRNA levels” value with CFTR mRNA is on record as “neither macrocycles nor ELX/TEZ affected these levels”.

As to `COc1cc(CCNC(=O)C2CC(=O)N(C)C(CC(C)C)C(=O)N3CCCCC3C(=O)NC(Cc3ccccc3)COc3ccc4ncc(F)cc4c3C(=O)N2)on1` (centres unmarked) [IDOR-3], on WT-CFTR, the “increase in WT-CFTR function” value was ~ 2 fold.
